Data taken from patent publication US10434057B2, “Cosmetic composition comprising osmanthus asiaticus extract and clematis apiifolia extract” (AMI COSMETIC CO., LTD., priority 2017, dated 2019).

Experiments:
[1] = Free radical scavenging activity by DPPH assay; assay type: biochemical; conditions: optical density at 540 nm; lower SC50 = higher activity
Protocol: Each of the extracts of Examples and Comparative Examples was suspended in purified water to evaluate a free radical scavenging activity of each of the extracts. A DPPH assay is a method of measuring an optical density at 540 nm to measure a level of discoloration caused by an inhibitor scavenging stable 2,2-diphenyl-1-picrylhydrazyl (DPPH) radicals. Vitamin C was used as the control, and a 50% scavenging concentration (SC50) of the DPPH radicals was measured. Then, the measured SC50 of the DPPH radicals was compared to that of the control (Table 3). In particular, the free radical scavenging activity of the sample of Example 1 at different concentrations was measured, and compared to that of the control (FIG. 1).

[2] = Free radical scavenging activity by ABTS assay; assay type: biochemical; conditions: measured at 732 nm; lower SC50 = higher activity
Protocol: Each of the extracts of Examples and Comparative Examples was suspended in purified water to evaluate a free radical scavenging activity of each of the extracts. […] Vitamin C was used as the control, and a 50% scavenging concentration (SC50) of the ABTS radicals was measured. Then, the measured SC50 of the ABTS radicals was compared to that of the control (Table 4). In particular, the free radical scavenging activities at different concentrations were measured in the case of Example 1, and compared to that of the control (FIG. 1).

women = test: Skin elasticity-improving effect of formulated creams (Cutometer MPA580); assay type: in vivo; conditions: cream around the eyes twice a day for 12 weeks; Cutometer MPA580 R8 value
Protocol: A skin elasticity-improving effect of the cosmetic composition including each of the samples obtained in Examples and Comparative Examples was evaluated. The respective samples were formulated into creams having the same compositions. In this case, only the samples of Examples 1 to 9 and Comparative Examples 1 to 12 differed. Healthy women over the age of 20 years old (with an average age of 37 years old) were divided into groups, and instructed to apply the formulated creams of Examples and Comparative Examples onto their faces under conditions of a temperature of 24 to 26° C. and a humidity of 75%. The formulated creams were applied around the eyes twice (morning and evening) a day for 12 weeks, and the skin elasticity was measured using a skin elastometer (Cutometer MPA580 commercially available from Courage+Khazaka Electronic GmbH, Germany). The test results were expressed as R8 (R8 (week 12)−R8 (week 0)) values of the Cutometer MPA580, and the R8 values represented properties such as skin viscoelasticity.

B16F10 cells = test: Melanin content assay (amount of produced melanin); assay type: cell-based; conditions: α-MSH stimulated, sample 200 μg/mL (50 mg/L), 48 hours, arbutin 200 μg/mL as control
Protocol: To check a whitening effect of the samples of Examples and Comparative Examples, an ability of the samples of Examples and Comparative Examples to inhibit melanogenesis was evaluated using a melanin content assay (Eisinger M et al., 1982; Siegrist W and Eberle A N, 1986). Each of the samples of Examples and Comparative Examples was suspended at a concentration of 50 mg/L in purified water, and an amount of produced melanin was determined.
B16F10 cells were seeded at a concentration of 1.5×10^5 cells/well in a 60 mm culture dish, and then cultured for 24 hours. A melanogenesis-stimulating hormone, α-MSH (Sigma-Aldrich, St. Louis, Mo., USA), and each of the samples of Examples and Comparative Examples were added to a medium at a concentration of 200 μg/mL (Virador V M et al., 1999).
After 48 hours had elapsed, the cells were harvested, and then washed once with PBS. Thereafter, 120 μL of a 1 N NaOH lysis buffer was added thereto, and the resulting mixture was heated at 95° C. for 10 minutes to lyse the cells. The optical density at a wavelength of 450 nm was measured using a microplate reader. Here, arbutin at a concentration of 200 μg/mL was used as the control (Table 6).
In particular, the melanin production rates at different concentrations were measured in the case of Example 1 (FIG. 1).

SMILES	50% Scavenging Concentration (SC50) of DPPH Radicals [1]	50% Scavenging Concentration (SC50) of ABTS Radicals [2]	Skin elasticity-improving effect, R8 (week 12) − R8 (week 0) (women)	Melanin production rate (B16F10 cells)
O=C1O[C@H]([C@@H](O)CO)C(O)=C1O [Control (Vitamin C), Vitamin C]	8.7 µg/mL	8.7 µg/mL	0.92	
OC[C@H]1O[C@@H](Oc2ccc(O)cc2)[C@H](O)[C@@H](O)[C@@H]1O [Positive control, arbutin]				38.2%
